Laboratory results reported in patent US9771330B2, “Pyrimidine compounds for the treatment of cancer” (The University of North Carolina at Chapel Hill, priority 2012, dated 2017).

Target: T1, Mer (Homo sapiens, UniProt Q12866)
T1 sequence (Q12866 21-999): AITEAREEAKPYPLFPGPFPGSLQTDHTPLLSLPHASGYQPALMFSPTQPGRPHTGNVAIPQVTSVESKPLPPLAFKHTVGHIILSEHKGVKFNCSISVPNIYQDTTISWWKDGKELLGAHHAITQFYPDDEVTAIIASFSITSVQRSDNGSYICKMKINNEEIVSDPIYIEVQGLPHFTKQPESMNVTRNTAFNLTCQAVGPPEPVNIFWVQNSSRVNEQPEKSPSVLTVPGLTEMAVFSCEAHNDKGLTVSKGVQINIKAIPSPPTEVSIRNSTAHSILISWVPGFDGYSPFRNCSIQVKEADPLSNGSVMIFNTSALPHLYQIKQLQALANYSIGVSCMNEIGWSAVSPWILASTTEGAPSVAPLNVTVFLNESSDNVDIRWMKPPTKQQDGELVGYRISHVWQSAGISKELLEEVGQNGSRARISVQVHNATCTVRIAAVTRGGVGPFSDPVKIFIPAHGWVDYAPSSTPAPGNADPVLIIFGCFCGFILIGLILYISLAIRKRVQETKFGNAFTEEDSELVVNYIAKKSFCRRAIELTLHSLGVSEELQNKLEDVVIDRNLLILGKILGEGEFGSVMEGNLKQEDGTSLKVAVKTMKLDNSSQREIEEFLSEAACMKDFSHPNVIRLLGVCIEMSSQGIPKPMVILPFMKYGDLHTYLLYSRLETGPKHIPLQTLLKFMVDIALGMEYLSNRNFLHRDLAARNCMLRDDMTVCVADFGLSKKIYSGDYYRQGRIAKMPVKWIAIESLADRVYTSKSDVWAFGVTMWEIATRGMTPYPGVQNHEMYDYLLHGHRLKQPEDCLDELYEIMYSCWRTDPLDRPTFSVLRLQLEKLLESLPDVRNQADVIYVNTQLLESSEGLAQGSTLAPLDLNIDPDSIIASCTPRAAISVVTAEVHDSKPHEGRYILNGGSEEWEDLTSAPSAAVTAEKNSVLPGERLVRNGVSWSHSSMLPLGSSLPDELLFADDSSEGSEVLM
Test: Mer IC50
Type: biochemical
Settings: Table 2, compounds of General Procedure E

- IC50: < 10 nM
Compound: N[C@H]1CCCCNc2nc(ncc2C(=O)NCC2CCOCC2)NCCCCCCNC1=O [UNC2705A]
